Data taken from patent US20090226392A1, “Phosphate-Binding Polymers for Oral Administration” (priority 1993, published 2009).

Assay: Phosphate binding test: polymer stirred in phosphate containing solution at pH 7 for 3 hours
Procedure: Candidate polymers were tested by stirring them in a phosphate containing solution at pH 7 for 3 hours. The solution was designed to mimic the conditions present in the small intestine.
The pH was adjusted to pH 7, once at the start of the test and again at the end of the test, using either aqueous NaOH or HCl. After 3 hours the polymer was filtered off and the residual phosphate concentration in the test solution was determined spectrophotometrically. The difference between the initial phosphate concentration and the final concentration was used to determine the amount of phosphate bound to the polymer.

| Structure (SMILES) | Phosphate Bound (pH 7) [meq/g] | Phosphate Bound (Table 2, other materials, pH 7, 3 hours, residual solution phosphate ~5 mM) [meq/g] |
| --- | --- | --- |
| [Ca+2].[Cl-].[Cl-] [Calcium Chloride] | 4.0 | – |
| CC(O)C(=O)[O-].CC(O)C(=O)[O-].[Ca+2] (centres unmarked) [Calcium Lactate] | – | 2.4 |
